Laboratory results taken from US20240285552A1 (priority 2020, published 2024).
Read-outs that look alike come from different tables or passages of the source. Residues, ends and D or L forms follow the SMILES beside them. *: point of attachment. Cbz = O=C(OCc1ccccc1)*; CH2F = FC*

Key:
[1] = biological target: T1, recombinant human ACE2 (rhACE2) (Homo sapiens, UniProt Q9BYF1); assay: ACE2 inhibitor screening assay (exopeptidase activity), CLQ and analogues, ZnCl2; type: biochemical
T1 construct: purchased BPS Bioscience 79923
Description: An ACE2 inhibitor screening assay kit with fluorogenic substrate (Catalogue #79923) was purchased from BPS Bioscience (San Diego, CA) and adapted to measure the exopeptidase activity of ACE2 in the presence and absence of inhibitors. The fluorescence assay was performed using a black flat-bottom 96-well plate with a final reaction volume of 50 μL following the manufacturer's instructions. 10 mM stock solutions of the compounds were prepared in Dimethyl sulfoxide (DMSO). Next, the compounds were serially diluted in DMSO as follows: 100 μM, 50 μM, 10 μM, 1 μM, 0.5 μM, and 0.1 μM for CLQ and CLBQ14 as well as 10 μM and 1 μM for CLCQ. All experiments were performed in triplicates. Each plate contained a positive control of enzyme-treated with vehicle alone (2% DMSO) and a blank control with no enzyme. Briefly, each reaction contained 24 μL of purified recombinant human ACE2 protein (0.42 ng/L) in ACE2 buffer, 1 μL of compound at serially diluted concentrations, and 25 μL ACE2 fluorogenic substrate. The total reaction volume was 50 μL. […] Thereafter, the fluorescence intensities (λExcitation=535 nm, λEmission=595 nm) were measured using a Beckman Coulter DTX880 multimode plate reader. […]
The effects of CLQ, CLBQ14, and CLCQ on the exopeptidase activity of rhACE2 were determined using a fluorometric assay provided by BPS Bioscience and adapted accordingly. […]

[2] = tested on: SARS-CoV-2 USA_WA1/2020; assay: microbe, parasite or virus in culture; type: cell-based
[3] = tested on: SARS CoV-2 nanoluciferase reporter virus; assay: microbe, parasite or virus in culture; type: cell-based; settings: for Concentration at Maximum % Inhibition / Maximum Inhibition: A549-ACE2, NLRV; for IC50: read-out: IC50, viral replication, Nanoluciferase Reporter Virus Assay
[4] = tested on: Vero E6 cells; settings: Example C (Table 4); for Conc. at Max. % Viability / Conc. at Min. % Viability / Max. Viability / Min. Viability: Vero E6
[5] = tested on: A549 cells
[6] = in vitro; settings: African green monkey
[7] = in vitro; settings: human
[8] = biological target: T2, rhACE2 and SARS-CoV-2 Spike (RBD) protein interaction (Homo sapiens, UniProt Q9BYF1); assay: Spike (RBD)-ACE2 binding assay (ELISA); set-up: species or system human; SARS-CoV-2; settings: bell shaped dose-response curve; CLQ series; read-out: IC50_2, ACE2-Spike (RBD) protein interaction
T2 construct: purchased RayBiotech CoV-SACE2-1

[9] = Severe acute respiratory syndrome coronavirus 2, Vero C1008, 72 h, read-out: IC50 against SARS-CoV-2 infection induced CPE
[10] = Severe acute respiratory syndrome coronavirus 2, Vero C1008, Example C (Table 3), read-out: IC 50 against SARS-COV-2 Induced Cytopathic Effect in Vero E6 Cells
[11] = Severe acute respiratory syndrome coronavirus 2, Vero C1008, Vero E6, Example B, highest concentration tested 30 μM, read-out: IC50 against SARS-CoV-2 infection induced CPE
[12] = Severe acute respiratory syndrome coronavirus 2, A549, 72 h
[13] = Cytotoxicity CC50, A549 cells, 72 hours
[14] = 50% cytotoxic concentration (CC50), Vero E6, 72 hours, Examples A and B, highest concentration 30 μM
[15] = Example C (Table 3), read-out: IC 50 against SARS-COV-2 Induced Cytopathic Effect in Vero E6 Cells
[16] = Cytotoxicity CC50, Vero E6, 72 hours, Example C (Table 4)

T1 sequence (Q9BYF1 18-805): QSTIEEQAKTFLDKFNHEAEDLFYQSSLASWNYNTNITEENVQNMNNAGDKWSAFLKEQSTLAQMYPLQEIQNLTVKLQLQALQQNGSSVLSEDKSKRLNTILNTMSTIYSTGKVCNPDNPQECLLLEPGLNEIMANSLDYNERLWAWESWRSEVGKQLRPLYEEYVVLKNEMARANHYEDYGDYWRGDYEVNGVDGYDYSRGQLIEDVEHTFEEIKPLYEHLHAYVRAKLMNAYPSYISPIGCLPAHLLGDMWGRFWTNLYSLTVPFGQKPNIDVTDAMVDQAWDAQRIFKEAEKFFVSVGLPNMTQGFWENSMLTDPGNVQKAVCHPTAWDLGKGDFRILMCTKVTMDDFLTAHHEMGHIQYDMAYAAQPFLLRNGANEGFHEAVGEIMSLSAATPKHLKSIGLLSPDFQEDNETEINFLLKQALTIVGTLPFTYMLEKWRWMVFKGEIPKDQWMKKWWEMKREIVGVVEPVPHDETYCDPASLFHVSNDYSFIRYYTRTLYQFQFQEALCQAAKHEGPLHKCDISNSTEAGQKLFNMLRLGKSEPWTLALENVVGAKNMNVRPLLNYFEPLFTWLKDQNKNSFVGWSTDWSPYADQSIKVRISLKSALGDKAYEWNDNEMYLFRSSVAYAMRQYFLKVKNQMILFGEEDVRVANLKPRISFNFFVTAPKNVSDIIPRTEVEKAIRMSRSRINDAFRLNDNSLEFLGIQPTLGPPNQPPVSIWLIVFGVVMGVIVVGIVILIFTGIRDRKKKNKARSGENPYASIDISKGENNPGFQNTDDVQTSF
T2 sequence (Q9BYF1 18-740): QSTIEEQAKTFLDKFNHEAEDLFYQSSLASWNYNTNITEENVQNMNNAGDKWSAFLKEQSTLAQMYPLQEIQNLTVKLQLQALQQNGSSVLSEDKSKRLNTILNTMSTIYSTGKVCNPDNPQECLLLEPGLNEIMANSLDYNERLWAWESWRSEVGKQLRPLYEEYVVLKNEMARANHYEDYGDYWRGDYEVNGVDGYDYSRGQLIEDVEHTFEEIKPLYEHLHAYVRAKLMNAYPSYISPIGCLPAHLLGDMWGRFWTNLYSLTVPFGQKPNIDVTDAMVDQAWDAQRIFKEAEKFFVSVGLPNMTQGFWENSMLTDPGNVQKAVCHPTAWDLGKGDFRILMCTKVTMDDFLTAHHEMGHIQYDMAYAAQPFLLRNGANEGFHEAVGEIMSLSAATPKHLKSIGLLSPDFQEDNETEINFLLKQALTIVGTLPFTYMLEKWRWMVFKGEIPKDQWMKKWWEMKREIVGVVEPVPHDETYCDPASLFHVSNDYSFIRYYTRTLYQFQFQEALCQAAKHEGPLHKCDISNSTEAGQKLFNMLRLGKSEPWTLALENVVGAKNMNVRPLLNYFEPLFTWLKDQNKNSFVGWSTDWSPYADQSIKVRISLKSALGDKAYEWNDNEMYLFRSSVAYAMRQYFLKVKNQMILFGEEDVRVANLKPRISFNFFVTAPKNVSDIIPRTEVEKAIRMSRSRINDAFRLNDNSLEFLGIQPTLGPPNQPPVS

Row | SMILES | Concentration at Maximum % Inhibition ([2]; Example C (Table 3)) [µM] | Maximum Inhibition ([2]; Example C (Table 3)) [%] | IC50 [2, 9] [µM] | IC50 [2, 11] [µM] | Concentration at Maximum % Inhibition [3] | Maximum Inhibition [3] [%] | Conc. at Max. % Viability [4] [nM] | Conc. at Min. % Viability [4] [nM] | Max. Viability [4] [%] | Min. Viability [4] [%] | Conc. at Max. % Viability [5] [nM] | Conc. at Min. % Viability [5] [nM] | Max. Viability [5] [%] | Min. Viability [5] [%] | also measured
1 | [Cl-].[Cl-].[Zn+2] [ZnCl2, Zinc Chloride] |  |  |  |  |  |  |  |  |  |  |  |  |  |  | effect on rhACE2 exopeptidase activity ([1]; 100 μM to 100 nM): increasing exopeptidase activity
2 | CCN(CC)CCCC(C)Nc1ccnc2cc(Cl)ccc12 (centres unmarked) [Chloroquine] | 30 | 114.51 | 1.1 | 3.56 | 15 µM | 99.53 | 469 | 3750 | 99.66 | 90.50 | 23 | 30000 | 117.48 | 9.11 | IC50 [2, 10]: 8.85 µM; IC50 [3, 12]: 3.3 µM; CC50 at 72 h [6]: > 30 µM; CC50 at 72 h [7]: 18.4 µM
3 | CCN(CCO)CCCC(C)Nc1ccnc2cc(Cl)ccc12 (centres unmarked) [Hydroxychloroquine] |  |  | 5.04 | 5.16 |  |  |  |  |  |  |  |  |  |  | 
4 | CC(C)C(=O)OC[C@H]1O[C@@H](n2ccc(NO)nc2=O)[C@H](O)[C@@H]1O [Molnupiravir] |  |  |  |  | 10 µM | 91.12 |  |  |  |  | 2 | 14 | 98.56 | 88.88 | IC50 [3, 12]: 4.2 µM; CC50 at 72 h [7, 13]: > 10 µM
5 | Oc1c(Br)cc(Cl)c2cccnc12 [CLBQ14, 7-bromo-5-chloro-8-hydroxyquinoline] |  |  | 14.7 |  |  |  |  |  |  |  |  |  |  |  | inhibition at 30 µM ([2]; Severe acute respiratory syndrome coronavirus 2, Vero C1008, at 30 μM, Example A, read-out: maximum inhibition of CPE): ~103%; CC50 at 72 h [6, 14]: > 30 µM
6 | Oc1c(I)cc(Cl)c2cccnc12 [CLQ, 5-chloro-7-iodo-8-quinolinol] |  |  | 12.6 |  |  |  |  |  |  |  |  |  |  |  | IC50 ([1]; 2.5 hours, room temperature, read-out: IC50 against rhACE2 exopeptidase activity): 5.36 µM; IC50 [8]: 18.2 µM; CC50 at 72 h [6, 14]: > 30 µM
7 | CC(C)C[C@H](NC(=O)OCc1ccccc1)C(=O)N[C@@H](CC(C)C)C(=O)N[C@@H](Cc1ccc(O)cc1)C(=O)CF [Calpain Inhibitor IV] (Cbz-Leu-Leu-Tyr-CH2F) | 7.17 | 115.91 |  |  | .0028 µM | 99.56 | 56 | 28 | 106.84 | 99.77 | 90 | 5.6 | 94.37 | 77.49 | IC50 ([2]; Vero E6, Example B, highest concentration tested 30 μM, read-out: IC50 against SARS-CoV-2 infection induced CPE): 0.29 µM; IC50 ([2]; read-out: IC 50 against SARS-COV-2 Induced Cytopathic Effect in Vero E6 Cells): 3.73 µM; IC50 ([2]; read-out: IC50 against SARS-CoV-2 infection induced CPE): 0.41 µM; IC50 [3]: 0.0005 µM; CC50 ([4]; read-out: Cytotoxicity CC50, Vero E6, 72 hours): > 7.17 µM; CC50 ([5]; read-out: Cytotoxicity CC50, 72 hours): > 0.179 µM
8 | Oc1c(Cl)cc(Cl)c2cccnc12 [CLCQ, 5,7-Dichloro-8-hydroxyquinoline] |  |  | 16.3 |  |  |  |  |  |  |  |  |  |  |  | CC50 [6, 14]: > 30 µM
9 | CCC(CC)COC(=O)[C@H](C)N[P@](=O)(OC[C@H]1O[C@@](C#N)(c2ccc3c(N)ncnn23)[C@H](O)[C@@H]1O)Oc1ccccc1 [Remdesivir] | 30 | 120.89 | 4.42 | 8.54 | 1.5 µM | 99.58 | 3750 | 117 | 100.73 | 91.15 | 6 | 94 | 95.46 | 84.65 | IC50 [2, 15]: 16.1 µM; IC50 [2, 10]: 16 µM; CC50 [6, 16]: > 30 µM; CC50 [7, 13]: > 3 µM
10 | CCOC(=O)[C@H]1O[C@@H]1C(=O)N[C@@H](CC(C)C)C(=O)NCCC(C)C [Aloxistatin] | 15 | 130.81 | 16.7 | 21.8 |  |  | 234 | 117 | 106.71 | 93.02 |  |  |  |  | IC50 [2, 15]: 4.59 µM; IC50 [2, 10]: 4.58 µM; CC50 at 72 h [6, 16]: > 30 µM
11 | CC(C)(C)[C@H](NC(=O)C(F)(F)F)C(=O)N1C[C@H]2[C@@H]([C@H]1C(=O)N[C@H](C#N)C[C@@H]1CCNC1=O)C2(C)C [PF-07321332] |  |  |  |  | 0.5 µM | 99.67 |  |  |  |  |  |  |  |  | IC50 ([3]; listed as Paxlovid): 0.05 µM; IC50 [3]: 0.057 µM
